≈ marks a conversion by molar mass, not a printed value. Counter-ions that a name gives are not always drawn. Like-named read-outs stand apart in the source and are kept apart here.
What was measured:
[1] = Stability in USP simulated gastric juice; format: in vitro ADME; conditions: USP SGF pH 1.1, pepsin […], prodrug 20 μg/mL
Excerpt: To minimize the direct inhibitory action of this drug on gastric emptying/gut motility—and resultant nausea—the prodrug should not undergo premature chemical or enzymic cleavage back to the parent drug while within the gut lumen.

[2] = tested on: Porphyromonas endodontalis; conditions: clinical isolate
Helicobacter pylori = assay: MIC, clindamycin prodrugs; format: cell-based; conditions: for MIC: Helicobacter pylori
[3] = tested on: Bacteroides thetaiotamicron; assay: MIC, clindamycin prodrugs; format: cell-based; conditions: for MIC: Bacteroides
Staphylococcusaureus = assay: MIC, clindamycin prodrugs; format: cell-based
Enterococcus faecium = conditions: vancomycin-susceptible clinical isolate
[4] = tested on: Staphylococcus haemolyticus; assay: MIC, clindamycin prodrugs; format: cell-based
Propionibacterium acnes = assay: MIC, clindamycin prodrugs; format: cell-based; conditions: for MIC: Cutibacterium acnes
Prevotella denticola = conditions: clinical isolate
[5] = tested on: Fusobacterium necrophorum; conditions: clinical isolate
[6] = tested on: Streptococcus constellatus; conditions: antibiotic-susceptible clinical isolate
Listeria monocytogenes = conditions: antibiotic-susceptible clinical isolate
Clostridium sporogenes = assay: MIC, clindamycin prodrugs; format: cell-based; conditions: ATCC 3584
Clostridium novyi = conditions: ATCC 19402
Clostridium perfringens = assay: microbe, parasite or virus in culture; format: cell-based; conditions: for MIC: Clostridium perfringens
Streptococcus pneumoniae = assay: MIC, clindamycin prodrugs; format: cell-based; conditions: for MIC: Streptococcus pneumoniae
[7] = tested on: Peptostreptococcus magnus; conditions: clinical isolate
Campylobacter coli = assay: MIC, clindamycin prodrugs; format: cell-based; conditions: for MIC: Campylobacter coli
[8] = tested on: Prevotella melaninogenicus; assay: MIC, clindamycin prodrugs; format: cell-based
Fusobacterium nucleatum = conditions: clinical isolate
[9] = relative bioavailability of clindamycin vs dosing clindamycin itself, male rats, mean
Procedure: Serial tail vein blood samples were subsequently collected via an indwelling cannuala into EDTA tubes containing a stabilising cocktail (including 6 mg/mL NaF) to prevent post collection enzymic hydrolysis of the prodrug.

[10] = tested on: Staphylococcus epidermidis; assay: MIC, clindamycin prodrugs; format: cell-based
[11] = tested on: Porphyromonas assacharolyticus; conditions: clinical isolate
Prevotella bivia = conditions: ATCC 29303
Group C Streptococcus = assay: MIC, clindamycin prodrugs; format: cell-based
Streptococcus mitis = conditions: antibiotic-susceptible clinical isolate
Bacteroides fragilis = assay: MIC, clindamycin prodrugs; format: cell-based; conditions: for MIC: Bacteroides fragilis
Veillonella atypical = assay: MIC, clindamycin prodrugs; format: cell-based
Bifidobacterium longum = assay: MIC, clindamycin prodrugs; format: cell-based
Veillonella parvula = assay: MIC, clindamycin prodrugs; format: cell-based
Bifidobacterium dentium = assay: MIC, clindamycin prodrugs; format: cell-based
Veillonella spp. = conditions: clinical isolate
Campylobacter jejuni = assay: MIC, clindamycin prodrugs; format: cell-based; conditions: for MIC: Campylobacter jejuni
[12] = tested on: Bifidobacterium adolescentis; assay: MIC, clindamycin prodrugs; format: cell-based
Eggerthella lenta = assay: MIC, clindamycin prodrugs; format: cell-based
Prevotella intermedia = conditions: clinical isolate
Corynebacterium jeikeium = conditions: antibiotic-susceptible clinical isolate
Streptococcus pyogenes = assay: MIC, clindamycin prodrugs; format: cell-based
[13] = antibiotic susceptible clinical isolate
[14] = antibiotic-susceptible clinical isolate
[15] = clinical isolate (second listed, r38)
[16] = methicillin-resistant clinical isolate
[17] = Macrolide (MLS) resistant clinical isolate
[18] = read-out: Minimum inhibitory concentration

Structure (SMILES): CCCC1CC(C(=O)NC(C(C)Cl)C2OC(SC)C(OC(=O)CCC(=O)N[C@H](C(=O)O)C(C)C)C(O)C2O)N(C)C1 (stereo partly drawn) [Clindamycin succinyl valine ester, Clindamycin-2-[succinyl-(S)-valine]ester trifluoroacetate]
- Simulated gastric juice (1 h, 37° C.) % active drug generated [1]: <1%
- Minimum inhibitory concentration [2]: 0.12 µg/mL
- Minimum inhibitory concentration (Helicobacter pylori; ATCC 43504): ≦0.03 ug/mL
- Minimum inhibitory concentration (Helicobacter pylori; clinical isolate (r56)): ≦0.03 ug/mL
- Minimum inhibitory concentration (Helicobacter pylori; clinical isolate (r57)): ≦0.03 ug/mL
- Minimum inhibitory concentration (Helicobacter pylori; clinical isolate (r100)): ≦0.03 ug/mL
- Minimum inhibitory concentration (Helicobacter pylori; clinical isolate (r101)): ≦0.03 ug/mL
- Minimum inhibitory concentration ([3]; ATCC 29741): 16 µg/mL
- Minimum inhibitory concentration ([3]; NCTC 10582): 32 µg/mL
- Minimum inhibitory concentration (Staphylococcusaureus; ATCC 25923 - antibiotic-susceptible type strain): 1 µg/mL
- Minimum inhibitory concentration (Staphylococcusaureus; ATCC 29213 - antibiotic-susceptible type strain): 2 µg/mL
- Minimum inhibitory concentration (Staphylococcusaureus; ATCC 43300 - methicillin-resistant type strain): >64 µg/mL
- Minimum inhibitory concentration (Enterococcus faecium): >64 µg/mL
- Minimum inhibitory concentration [4, 13]: 2 µg/mL
- Minimum inhibitory concentration (Propionibacterium acnes): 2 µg/mL
- Minimum inhibitory concentration (Propionibacterium acnes; clinical isolate MIC clindamycin 0.5 mg/L): 2 µg/mL
- Minimum inhibitory concentration (Prevotella denticola): 1 µg/mL
- Minimum inhibitory concentration [5]: 0.12 µg/mL
- Minimum inhibitory concentration [6]: 1 µg/mL
- Minimum inhibitory concentration (Listeria monocytogenes): 16 µg/mL
- Minimum inhibitory concentration (Clostridium sporogenes): >64 µg/mL
- Minimum inhibitory concentration (Clostridium novyi): 0.5 µg/mL
- Minimum inhibitory concentration (Clostridium perfringens; ATCC 13124): 1 µg/mL
- Minimum inhibitory concentration (Clostridium perfringens; [14]): 1 µg/mL
- Minimum inhibitory concentration (Streptococcus pneumoniae; ATCC 49619 antibiotic-susceptible type strain): 0.5 µg/mL
- Minimum inhibitory concentration (Streptococcus pneumoniae; penicillin-susceptible clinical isolate): 0.5 µg/mL
- Minimum inhibitory concentration [7]: 16 µg/mL
- Minimum inhibitory concentration (Campylobacter coli; ATCC 33559): ≦0.03 ug/mL
- Minimum inhibitory concentration (Campylobacter coli; clinical isolate): ≦0.03 ug/mL
- Minimum inhibitory concentration ([8]; clinical isolate (first listed, r37)): 0.25 µg/mL
- Minimum inhibitory concentration [8, 15]: 0.25 µg/mL
- Minimum inhibitory concentration (Fusobacterium nucleatum): 0.25 µg/mL
- Frel [9]: 8%
- Minimum inhibitory concentration [10, 13]: 2 µg/mL
- Minimum inhibitory concentration [10, 16]: 4 µg/mL
- Minimum inhibitory concentration [11]: 0.12 µg/mL
- Minimum inhibitory concentration (Prevotella bivia): 0.5 µg/mL
- Minimum inhibitory concentration (Group C Streptococcus; [14]): 1 µg/mL
- Minimum inhibitory concentration (Streptococcus mitis): 0.25 µg/mL
- Minimum inhibitory concentration (Bacteroides fragilis; ATCC 25285): 8 µg/mL
- Minimum inhibitory concentration (Bacteroides fragilis; clinical isolate): 8 µg/mL
- Minimum inhibitory concentration (Veillonella atypical; NCTC 11830): 2 µg/mL
- Minimum inhibitory concentration (Bifidobacterium longum; NCTC 11818): 0.5 µg/mL
- Minimum inhibitory concentration (Veillonella parvula; NCTC 11810): 1 µg/mL
- Minimum inhibitory concentration (Bifidobacterium dentium; NCTC 11816): 0.5 µg/mL
- Minimum inhibitory concentration (Veillonella spp.): 0.5 µg/mL
- Minimum inhibitory concentration (Campylobacter jejuni; ATCC 33560): ≦0.03 ug/mL
- Minimum inhibitory concentration (Campylobacter jejuni; clinical isolate): ≦0.03 ug/mL
- Minimum inhibitory concentration ([12]; NCTC 11814): 0.5 µg/mL
- Minimum inhibitory concentration (Eggerthella lenta; ATCC 43055): 8 µg/mL
- Minimum inhibitory concentration (Eggerthella lenta; clinical isolate): 8 µg/mL
- Minimum inhibitory concentration (Prevotella intermedia): 0.12 µg/mL
- Minimum inhibitory concentration (Corynebacterium jeikeium): >64 µg/mL
- Minimum inhibitory concentration (Streptococcus pyogenes; [17]): 2 µg/mL
- Minimum inhibitory concentration (Streptococcus pyogenes; [14]): 1 µg/mL

Structure (SMILES): CCC[C@@H]1C[C@@H](C(=O)N[C@@H]([C@H]2O[C@H](SC)[C@H](O)[C@@H](O)[C@H]2O)[C@H](C)Cl)N(C)C1 [Clindamycin, clindamycin, reference compound]
- MIC (Helicobacter pylori; ATCC43504, read-out: Minimum inhibitory concentration): ≤ 0.03 µg/mL
- MIC (Helicobacter pylori; [18]): ≤ 0.03 µg/mL
- Minimum inhibitory concentration (Helicobacter pylori; clinical isolate (r56)): ≦0.03 ug/mL
- Minimum inhibitory concentration (Helicobacter pylori; clinical isolate (r57)): ≦0.03 ug/mL
- Minimum inhibitory concentration (Helicobacter pylori; clinical isolate (r101)): ≦0.03 ug/mL
- MIC ([3]; ATCC29741, read-out: Minimum inhibitory concentration): 2 µg/mL (≈ 4.71 µM)
- MIC ([3]; NCTC10582, read-out: Minimum inhibitory concentration): 1 µg/mL (≈ 2.35 µM)
- MIC (Staphylococcusaureus; read-out: Minimum inhibitory concentration, ATCC 25923 - antibiotic-susceptible type strain): 0.06 µg/mL (≈ 0.141 µM)
- MIC (Staphylococcusaureus; read-out: Minimum inhibitory concentration, ATCC 29213 - antibiotic-susceptible type strain): 0.06 µg/mL (≈ 0.141 µM)
- MIC (Staphylococcusaureus; read-out: Minimum inhibitory concentration, ATCC 43300 - methicillin-resistant type strain): > 64 µg/mL
- MIC ([4]; Staphylococcus haemolyticus, read-out: Minimum inhibitory concentration): 0.06 µg/mL (≈ 0.141 µM)
- MIC (Propionibacterium acnes; read-out: Minimum inhibitory concentration, clinical isolate MIC clindamycin 0.5 mg/L): 0.12 µg/mL (≈ 0.282 µM)
- MIC (Propionibacterium acnes; read-out: Minimum inhibitory concentration, clinical isolate MIC clindamycin […]): 0.06 µg/mL (≈ 0.141 µM)
- MIC (Clostridium sporogenes; Clostridium sporogenes, ATCC3584, read-out: Minimum inhibitory concentration): 32 µg/mL (≈ 75.3 µM)
- MIC (Clostridium perfringens; ATCC13124, read-out: Minimum inhibitory concentration): 0.06 µg/mL (≈ 0.141 µM)
- MIC (Clostridium perfringens; [18]): 0.06 µg/mL (≈ 0.141 µM)
- MIC (Streptococcus pneumoniae; ATCC49619, read-out: Minimum inhibitory concentration): ≤ 0.03 µg/mL
- MIC (Streptococcus pneumoniae; [18]): ≤ 0.03 µg/mL
- MIC (Campylobacter coli; ATCC33559, read-out: Minimum inhibitory concentration): ≤ 0.03 µg/mL
- MIC (Campylobacter coli; [18]): 0.06 µg/mL (≈ 0.141 µM)
- MIC ([8]; Prevotella, read-out: Minimum inhibitory concentration): ≤ 0.03 µg/mL
- Minimum inhibitory concentration [8, 15]: ≦0.03 ug/mL
- MIC ([10]; Staphylococcus epidermidis, read-out: Minimum inhibitory concentration): 0.12 µg/mL (≈ 0.282 µM)
- Minimum inhibitory concentration [10, 16]: 0.12 µg/mL (≈ 0.282 µM)
- MIC (Group C Streptococcus; Streptococcus, read-out: Minimum inhibitory concentration): ≤ 0.03 µg/mL
- MIC (Bacteroides fragilis; ATCC25285, read-out: Minimum inhibitory concentration): 0.5 µg/mL (≈ 1.18 µM)
- MIC (Bacteroides fragilis; [18]): 0.12 µg/mL (≈ 0.282 µM)
- MIC (Veillonella atypical; Veillonella, NCTC11830, read-out: Minimum inhibitory concentration): 0.06 µg/mL (≈ 0.141 µM)
- MIC (Bifidobacterium longum; Bifidobacterium longum, NCTC11818, read-out: Minimum inhibitory concentration): 0.12 µg/mL (≈ 0.282 µM)
- MIC (Veillonella parvula; Veillonella parvula, NCTC11810, read-out: Minimum inhibitory concentration): ≤ 0.03 µg/mL
- MIC (Bifidobacterium dentium; Bifidobacterium dentium, NCTC11816, read-out: Minimum inhibitory concentration): ≤ 0.03 µg/mL
- MIC (Campylobacter jejuni; ATCC33560, read-out: Minimum inhibitory concentration): ≤ 0.03 µg/mL
- MIC (Campylobacter jejuni; [18]): ≤ 0.03 µg/mL
- MIC ([12]; Bifidobacterium adolescentis, NCTC11814, read-out: Minimum inhibitory concentration): ≤ 0.03 µg/mL
- Minimum inhibitory concentration (Streptococcus pyogenes; [17]): ≦0.03 ug/mL
- MIC (Streptococcus pyogenes; Streptococcus pyogenes, read-out: Minimum inhibitory concentration): ≤ 0.03 µg/mL

— patent publication US20120202756A1, “USE OF PRODRUGS TO AVOID GI MEDIATED ADVERSE EVENTS” (priority 2009, published 2012)
